Assay results: the NIST ThermoML archive (doi:10.1016/j.jct.2008.03.007)

Columns and labels:
[1] = 101.33 kPa, Liquid, Vibrating tube method
[2] = xn = mol fraction of the nth substance listed; details: 101 kPa, Liquid; for mass density: Vibrating tube method

CCO [ethanol]
[1]
Details	mass density [kg/m3]
298.15 K	785.5
303.15 K	782
313.15 K	773.7

CCCCCCCC[N+](C)(CCCCCCCC)CCCCCCCC.O=S(=O)([N-]S(=O)(=O)C(F)(F)F)C(F)(F)F + CCCO
[2]
Details	mass density, 298.15 K [kg/m3]	mass density, 303.15 K [kg/m3]	mass density, 313.15 K [kg/m3]	speed of sound, 298.15 K [m/s]
x1 = 0.0736	919	915	907	1187.7
x1 = 0.1146	956	952	944	1178.1
x1 = 0.2152	1011	1006	999	1154.7
x1 = 0.3303	1045	1041	1033	1127.9
x1 = 0.4033	1059	1055	1047	1110.9
x1 = 0.524	1076	1072	1064	1082.8
x1 = 0.6682	–	–	–	1049.2
x1 = 0.6882	1091	1087	1080	–
x1 = 0.7833	1098	1094	1087	1022.4
x1 = 0.8439	1102	1097	1090	1008.3
x1 = 0.9533	1107	1103	1096	982.9

CCCCCCCC[N+](C)(CCCCCCCC)CCCCCCCC.O=S(=O)([N-]S(=O)(=O)C(F)(F)F)C(F)(F)F
[1]
Details	mass density [kg/m3]
298.15 K	1109.3
303.15 K	1105.1
313.15 K	1098.3

CCCCCCCC[N+](C)(CCCCCCCC)CCCCCCCC.O=S(=O)([N-]S(=O)(=O)C(F)(F)F)C(F)(F)F + CCO
[2]
Details	mass density, 298.15 K [kg/m3]	mass density, 303.15 K [kg/m3]	mass density, 313.15 K [kg/m3]	speed of sound, 298.15 K [m/s]
x1 = 0.0484	896	896	883	–
x1 = 0.1731	1005	1003	994	1116.1
x1 = 0.2728	1041	1036	1029	1098.8
x1 = 0.3353	1055	1050	1044	1087.9
x1 = 0.4286	1070	1063	1058	1071.6
x1 = 0.5145	1080	1072	1068	1056.6
x1 = 0.6307	1090	1082	1078	1036.4
x1 = 0.7338	1097	1090	1085	1018.4
x1 = 0.7774	1099	1092	1087	1010.8
x1 = 0.9393	1107	–	–	–
x1 = 0.9493	–	1103	1096	980.8

CCCCCCCC[N+](C)(CCCCCCCC)CCCCCCCC.O=S(=O)([N-]S(=O)(=O)C(F)(F)F)C(F)(F)F + CO
[2]
Details	mass density, 298.15 K [kg/m3]	mass density, 303.15 K [kg/m3]	mass density, 313.15 K [kg/m3]	speed of sound, 298.15 K [m/s]
x1 = 0.0336	–	–	–	1097.8
x1 = 0.0781	958	954	940	–
x1 = 0.1291	999	994	982	1085.4
x1 = 0.2125	1037	1031	1022	1074.5
x1 = 0.35	1068	1062	1055	–
x1 = 0.4172	1077	1071	1064	1047.9
x1 = 0.5362	1089	1083	1076	1032.4
x1 = 0.6529	1097	1092	1085	–
x1 = 0.6611	–	–	–	1016.1
x1 = 0.7084	1100	1095	1088	1010
x1 = 0.8522	1106	1102	1095	991.2
x1 = 0.9345	1108	1104	1097	–

CO [methanol]
[1]
Details	mass density [kg/m3]
298.15 K	786
303.15 K	783.4
313.15 K	774.6

CCCO [propan-1-ol]
[1]
Details	mass density [kg/m3]
298.15 K	799.4
303.15 K	796.4
313.15 K	788.6
